According to US11053204B2, “Pyrimidinyloxy benzene derivatives as herbicides” (FMC Corporation, priority 2015, dated 2021):

What was measured:
Type in all cases: in vivo
[1] = tested on: ducksalad (Heteranthera limosa); assay: Test B flooded paddy test, plant response rating; details: Heteranthera limosa, 312 h; 250 g ai/ha; Flood; scale of 0 to 100 where 0 is no effect and 100 is complete control; 13 to 15 days
Summary of the method: (§1)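 Test compounds are applied straight into paddy water held 3 cm above the soil surface, with that flood maintained for the whole test. After 13 to 15 days in the greenhouse, each species is scored visually relative to controls.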

rice (Oryza sativa) = assay: Test B flooded paddy test, plant response rating; details: Oryza sativa, 312 h; 250 g ai/ha; Flood; scale of 0 to 100 where 0 is no effect and 100 is complete control; 13 to 15 days
Summary of the method: as §1

[2] = tested on: sedge, umbrella (small-flower umbrella sedge, Cyperus difformis); assay: Test B flooded paddy test, plant response rating; details: Cyperus difformis, 312 h; 250 g ai/ha; Flood; scale of 0 to 100 where 0 is no effect and 100 is complete control; 13 to 15 days
Summary of the method: as §1

[3] = tested on: barnyardgrass (Echinochloa crus-galli); assay: Test B flooded paddy test, plant response rating; details: Echinochloa crus-galli, 312 h; 250 g ai/ha; Flood; scale of 0 to 100 where 0 is no effect and 100 is complete control; 13 to 15 days
Summary of the method: as §1

[4] = tested on: johnsongrass (Sorghum halepense); assay: Test C postemergence, plant response rating; details: for Plant response rating, Johnsongrass: scale 0 to 100; for Johnsongrass plant response rating: scale 0 to 100 (0 no effect, 100 complete control)
Summary of the method: (§2)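 Visual injury score, 0 = no effect, 100 = complete control, assigned against untreated controls after 13 to 15 d in the greenhouse. Compounds were applied in a surfactant-containing non-phytotoxic solvent mix, preemergence to seeded loam/sand or silt loam soil, or postemergence to 1- to 4-leaf plants (2 to 18 cm).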

[5] = tested on: pigweed (Amaranthus retroflexus); assay: Test C postemergence, plant response rating; details: Amaranthus retroflexus, post-emergence; for pest or weed control at 16 g/ha: 16 g ai/ha; for pest or weed control at 16 g/ha / pest or weed control at 31 g/ha: scale 0 to 100; for pest or weed control at 31 g/ha: 31 g ai/ha; for pest or weed control at 62 g/ha: 62 g ai/ha; for pest or weed control at 62 g/ha / pest or weed control at 125 g/ha: scale 0 to 100 (0 no effect, 100 complete control); for pest or weed control at 125 g/ha: 125 g ai/ha
Summary of the method: as §2

[6] = tested on: ragweed (common ragweed, Ambrosia elatior); assay: Test A postemergence, visual injury rating; details: Ambrosia artemisiifolia, post-emergence, 240 h, 0 is no effect, 100 is complete control, read-out: Ragweed plant response rating (0 to 100 scale); for pest or weed control at 125 g/ha: 125 g ai/ha; for pest or weed control at 500 g/ha: 500 g ai/ha
Summary of the method: (§3)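 Greenhouse pot test, loam/sand soil. Formulation: non-phytotoxic solvent mix plus surfactant. Pre: directed spray onto soil after sowing. Post: plants at 1–2 leaf, 2–10 cm. Rated visually vs untreated controls at ~10 d, 0 (no effect) to 100 (complete control).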

[7] = tested on: Italian ryegrass (Lolium multiflorum); assay: Test A postemergence, visual injury rating; details: Lolium multiflorum, post-emergence, 240 h, 0 is no effect, 100 is complete control, read-out: Ryegrass, Italian plant response rating (0 to 100 scale); for pest or weed control at 125 g/ha: 125 g ai/ha; for pest or weed control at 500 g/ha: 500 g ai/ha
Summary of the method: as §3

[8] = tested on: pigweed (Amaranthus retroflexus); assay: Test A postemergence, visual injury rating; details: Amaranthus retroflexus, post-emergence, 240 h, 0 is no effect, 100 is complete control, read-out: Pigweed plant response rating (0 to 100 scale); for pest or weed control at 125 g/ha: 125 g ai/ha; for pest or weed control at 500 g/ha: 500 g ai/ha
Summary of the method: as §3

[9] = tested on: blackgrass (Alopecurus myosuroides); assay: Test A postemergence, visual injury rating; details: Alopecurus myosuroides, post-emergence, 240 h, 0 is no effect, 100 is complete control, read-out: Blackgrass plant response rating (0 to 100 scale); for pest or weed control at 125 g/ha: 125 g ai/ha; for pest or weed control at 500 g/ha: 500 g ai/ha
Summary of the method: as §3

[10] = tested on: wheat (Triticum aestivum); assay: Test A postemergence, visual injury rating; details: Triticum aestivum, post-emergence, 240 h, 0 is no effect, 100 is complete control, read-out: Wheat plant response rating (0 to 100 scale); for plant injury at 125 g/ha: 125 g ai/ha; for plant injury at 500 g/ha: 500 g ai/ha
Summary of the method: as §3

[11] = tested on: barnyardgrass (Echinochloa crus-galli); assay: Test A postemergence, visual injury rating; details: Echinochloa crus-galli, post-emergence, 240 h, 0 is no effect, 100 is complete control, read-out: Barnyardgrass plant response rating (0 to 100 scale); for pest or weed control at 125 g/ha: 125 g ai/ha; for pest or weed control at 500 g/ha: 500 g ai/ha
Summary of the method: as §3

[12] = tested on: galium (catchweed bedstraw, Galium aparine); assay: Test A postemergence, visual injury rating; details: Galium, post-emergence, 240 h, 0 is no effect, 100 is complete control, read-out: Galium plant response rating (0 to 100 scale); for pest or weed control at 125 g/ha: 125 g ai/ha; for pest or weed control at 500 g/ha: 500 g ai/ha
Summary of the method: as §3

corn (Zea mays) = assay: Test A postemergence, visual injury rating; details: Zea mays, post-emergence, 240 h, 0 is no effect, 100 is complete control, read-out: Corn plant response rating (0 to 100 scale); for plant injury at 125 g/ha: 125 g ai/ha; for plant injury at 500 g/ha: 500 g ai/ha
Summary of the method: as §3

kochia (Kochia scoparia) = assay: Test A postemergence, visual injury rating; details: Bassia scoparia, post-emergence, 240 h, 0 is no effect, 100 is complete control, read-out: Kochia plant response rating (0 to 100 scale); for pest or weed control at 125 g/ha: 125 g ai/ha; for pest or weed control at 500 g/ha: 500 g ai/ha
Summary of the method: as §3

[13] = tested on: giant foxtail (Setaria faberii); assay: Test A postemergence, visual injury rating; details: Setaria faberi, post-emergence, 240 h, 0 is no effect, 100 is complete control, read-out: Foxtail, Giant plant response rating (0 to 100 scale); for pest or weed control at 125 g/ha: 125 g ai/ha; for pest or weed control at 500 g/ha: 500 g ai/ha
Summary of the method: as §3

Compound | pest or weed control at 250 g/ha [1] [%] | plant injury at 250 g/ha (rice (Oryza sativa)) [%] | pest or weed control at 250 g/ha [2] [%] | pest or weed control at 250 g/ha [3] [%] | Plant response rating, Johnsongrass ([4]; 16 g ai/ha) | Plant response rating, Johnsongrass ([4]; 31 g ai/ha) | Johnsongrass plant response rating ([4]; 62 g ai/ha) | Johnsongrass plant response rating ([4]; 125 g ai/ha) | pest or weed control at 16 g/ha [5] [%] | pest or weed control at 31 g/ha [5] [%] | pest or weed control at 62 g/ha [5] [%] | pest or weed control at 125 g/ha [5] [%] | pest or weed control at 125 g/ha [6] [%] | pest or weed control at 500 g/ha [6] [%] | pest or weed control at 125 g/ha [7] [%] | pest or weed control at 500 g/ha [7] [%] | pest or weed control at 125 g/ha [8] [%] | pest or weed control at 500 g/ha [8] [%] | pest or weed control at 125 g/ha [9] [%] | pest or weed control at 500 g/ha [9] [%] | further results
O=C(OCC(F)(F)C(F)(F)F)c1c(Br)cccc1Oc1ncc(Cl)cn1 [Compound 23, 2,2,3,3,3-pentafluoropropyl 2-bromo-6-[(5-chloro-2-pyrimidinyl)oxy]benzoate] | 30 | 15 | 95 | 0 | 0 | 15 | 15 | 20 | 60 | 75 | 70 | 85 | 0 | 10 | 10 | 70 | 100 | 100 | 10 | 50 | plant injury at 125 g/ha [10]: 0%; plant injury at 500 g/ha [10]: 10%; pest or weed control at 125 g/ha [11]: 10%; pest or weed control at 500 g/ha [11]: 50%; pest or weed control at 125 g/ha [12]: 90%; pest or weed control at 500 g/ha [12]: 100%; plant injury at 125 g/ha (corn (Zea mays)): 10%; plant injury at 500 g/ha (corn (Zea mays)): 20%; pest or weed control at 125 g/ha (kochia (Kochia scoparia)): 80%; pest or weed control at 500 g/ha (kochia (Kochia scoparia)): 100%; pest or weed control at 125 g/ha [13]: 30%; pest or weed control at 500 g/ha [13]: 80%
O=C(OCCC(F)(F)F)c1c(Br)cccc1Oc1ncc(Cl)cn1 [Compound 26, 3,3,3-trifluoropropyl 2-bromo-6-[(5-chloro-2-pyrimidinyl)oxy]benzoate] | 100 | 20 | 100 | 60 | 10 | 20 | 20 | 25 | 75 | 98 | 98 | 100 | 30 | 60 | 70 | 80 | 100 | 100 | 100 | 100 | plant injury at 125 g/ha [10]: 40%; plant injury at 500 g/ha [10]: 90%; pest or weed control at 125 g/ha [11]: 100%; pest or weed control at 500 g/ha [11]: 100%; pest or weed control at 125 g/ha [12]: 100%; pest or weed control at 500 g/ha [12]: 100%; plant injury at 125 g/ha (corn (Zea mays)): 60%; plant injury at 500 g/ha (corn (Zea mays)): 100%; pest or weed control at 125 g/ha (kochia (Kochia scoparia)): 100%; pest or weed control at 500 g/ha (kochia (Kochia scoparia)): 100%; pest or weed control at 125 g/ha [13]: 100%; pest or weed control at 500 g/ha [13]: 100%
